The record followed here is patent US20250263416A1, “SPPL2a INHIBITORS” (Incyte Corporation, priority 2024, published 2025).

Entries after “also recorded” stand apart in the source; their conditions may differ.

The target in this assay is T1, human SPPL2a (Homo sapiens, UniProt Q8TCT8).
T1 construct: expressed in transfected cells; host or cells: U2OS (SPPL2a reporter cell line)
T1 sequence (Q8TCT8 26-520): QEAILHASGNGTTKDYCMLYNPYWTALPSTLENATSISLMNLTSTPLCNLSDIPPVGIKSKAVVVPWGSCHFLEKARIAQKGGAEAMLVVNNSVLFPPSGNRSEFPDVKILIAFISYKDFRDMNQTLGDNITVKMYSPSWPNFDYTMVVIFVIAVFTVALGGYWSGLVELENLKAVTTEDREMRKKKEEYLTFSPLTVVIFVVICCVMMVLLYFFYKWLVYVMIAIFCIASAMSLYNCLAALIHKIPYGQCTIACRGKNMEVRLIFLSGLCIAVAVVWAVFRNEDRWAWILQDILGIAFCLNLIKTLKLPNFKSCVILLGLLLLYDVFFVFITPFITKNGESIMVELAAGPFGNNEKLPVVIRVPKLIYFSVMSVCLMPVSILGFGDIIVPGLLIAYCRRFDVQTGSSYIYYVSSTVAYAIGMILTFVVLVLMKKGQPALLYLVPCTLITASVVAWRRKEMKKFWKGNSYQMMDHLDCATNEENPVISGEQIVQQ
Nature of the assay: Western blot assay of TNFα-GFP cleavage in U2OS cells expressing human SPPL2a. Type of assay: cell-based. The conditions noted are these: SPPL2a-U2OS reporter cells, 24 h. The procedure: To confirm the cleavage of TNF-α in the U2OS cells that express human SPPL2a, a western blot assay was performed. The same cell line used for the imaging assays were used; these cells express human SPPL2a constitutively and an eGFP-labelled TNFα (aa 1-76) NTF substrate under a doxycycline promotor. In the presence of SPPL2a activity, TNFα-GFP is cleaved at the NTF, resulting in a single 54-56 kDa band (lower MW). If SPPL2a activity is inhibited, TNFα GFP processing is abrogated resulting in a higher molecular weight band (60-62 kDa; complete inhibition) and or both 54-56 kDa and 60-62 kDa bands (incomplete inhibition, smeared appearance) on the blot. Both Example 1 and Example A were added at indicated concentrations, and cells were incubated for 24 h with the inhibitors. Total cell lysated were prepared in ice cold-1X RIPA buffer containing protease inhibitor cocktail (AKR-190, Cell BioLabs). Lysates were collected and quantified for the total protein on NanoDrop using BCA kit (23227, Thermo Scientific). […] To detect cleaved and un-cleaved TNFα-GFP fragments, anti-GFP antibody (AF4240, R&D Biosystems) was used as a primary antibody and detected using anti-goat detection module (DM-006, ProteinSimple) according to the manufacturer's protocol. Data was analyzed using ProteinSimple compass software.

In the case of `CNC(=O)c1nc(C)c(C(=O)NC[C@@H](C)C(=O)N[C@@H]2C(=O)N3CCCN3Cc3ccccc32)s1` [Example A, N^2,4-dimethyl-N^5—((R)-2-methyl-3-oxo-3-(((S)-11-oxo-2,3,10,11-tetrahydro-1H,5H-benzo[d]pyrazolo[1,2-a][1,2]diazepin-10-yl)amino)propyl)thiazole-2,5-dicarboxamide], the “TNFα-GFP cleavage inhibition (SPPL2a activity inhibition)” value was “SPPL2a activity inhibition; also recorded: Comparable and significant TNFα-GFP cleavage inhibition”.
